Laboratory results as given in ChEMBL document CHEMBL4813985, “Lead optimization generates selenium-containing miconazole CYP51 inhibitors with improved pharmacological profile for the treatment of fungal infections” (Eur J Med Chem, 2021).
≈ marks a conversion by molar mass, not a printed value.

Key:
Type in all cases: functional
Candida albicans [1] = experiment: Antifungal activity against Candida albicans CPCC400616 measured after 24 hrs by broth microdilution assay
Candida albicans [2] = experiment: Antifungal activity against Candida albicans ATCC SC5314 measured after 24 hrs by broth microdilution assay
[Candida] zeylanoides = Antifungal activity against Candida zeylanoides CMGCC2.3739 measured after 24 hrs by broth microdilution assay; conditions: Dujonia zeylanoides
Cryptococcus neoformans = experiment: Antifungal activity against Cryptococcus neoformans CMGCC2.3161 measured after 72 hrs by broth microdilution assay
Pichia kudriavzevii = experiment: Antifungal activity against Candida krusei AS2.1045 measured after 24 hrs by broth microdilution assay
Nakaseomyces glabratus = experiment: Antifungal activity against Candida glabrata measured after 24 hrs by broth microdilution assay
Candida parapsilosis = experiment: Antifungal activity against Candida parapsilosis ATCC 22019 measured after 24 hrs by broth microdilution assay; conditions: Lodderomyces parapsilosis
Aspergillus fumigatus = experiment: Antifungal activity against Aspergillus fumigatus CMGCC3.7795 measured after 72 hrs by broth microdilution assay
Candida albicans [3] = experiment: Antifungal activity against fluconazole-resistant Candida albicans CaR assessed as inhibition of microbial growth after 24 hrs by broth microdilution method
Candida albicans [4] = experiment: Antifungal activity against fluconazole-resistant Candida albicans 17# assessed as inhibition of microbial growth after 24 hrs by broth microdilution method
Candida albicans [5] = experiment: Antifungal activity against fluconazole-resistant Candida albicans 632 assessed as inhibition of microbial growth after 24 hrs by broth microdilution method
Candida albicans [6] = experiment: Antifungal activity against fluconazole-resistant Candida albicans 901 assessed as inhibition of microbial growth after 24 hrs by broth microdilution method
Candida albicans [7] = experiment: Antifungal activity against fluconazole-resistant Candida albicans 904 assessed as inhibition of microbial growth after 24 hrs by broth microdilution method
Candida albicans [8] = experiment: Potency index, ratio of fluconazole MIC to test compound MIC for Candida albicans CPCC400616 measured after 24 hrs by broth microdilution assay
Candida albicans [9] = experiment: Potency index, ratio of miconazole MIC to test compound MIC for Candida albicans CPCC400616 measured after 24 hrs by broth microdilution assay

Cc1cccc(C)c1[Se]C(Cn1ccnc1)c1ccc(F)cc1F (stereo not given)
MIC (Candida albicans [1]): 0.03 µg/mL (≈ 0.0767 µM)
MIC (Candida albicans [2]): 0.02 µg/mL (≈ 0.0511 µM)
MIC ([Candida] zeylanoides): 0.13 µg/mL (≈ 0.332 µM)
MIC (Cryptococcus neoformans): 0.25 µg/mL (≈ 0.639 µM)
MIC (Pichia kudriavzevii): 0.02 µg/mL (≈ 0.0511 µM)
MIC (Nakaseomyces glabratus): 0.5 µg/mL (≈ 1.28 µM)
MIC (Candida parapsilosis): 0.06 µg/mL (≈ 0.153 µM)
MIC (Aspergillus fumigatus): 8 µg/mL (≈ 20.4 µM)
MIC (Candida albicans [3]): 8 µg/mL
MIC (Candida albicans [4]): 0.25 µg/mL
MIC (Candida albicans [5]): 1 µg/mL
MIC (Candida albicans [6]): 2 µg/mL
MIC (Candida albicans [7]): 2 µg/mL
Ratio (Candida albicans [8]): 8
Ratio (Candida albicans [9]): 8
